Results from ChEMBL document CHEMBL3885881, “DrugMatrix”.

Organism: Rattus norvegicus
Test: DrugMatrix - Regimen: Daily Repeat
Assay type: toxicity, organism-based, Sprague-Dawley
Design: regimen Daily Repeat, gender Male, age 6-8 weeks
Settings: in vivo, po, 41 mg/kg, route oral GAVAGE, dose level Low, vehicle 100 % WATER; for ABSOLUTE BASOPHIL / ABSOLUTE EOSINOPHIL / ABSOLUTE LYMPHOCYTE / ABSOLUTE MONOCYTE / ABSOLUTE SEGMENTED NEUTROPHIL / BASOPHIL / EOSINOPHIL / ERYTHROCYTE COUNT / HEMATOCRIT / HEMOGLOBIN / LEUKOCYTE COUNT / LYMPHOCYTE / MEAN CORPUSCULAR HEMOGLOBIN / MEAN CORPUSCULAR HEMOGLOBIN CONCENTRATION / MEAN CORPUSCULAR VOLUME / MONOCYTE / NEUTROPHIL / NUCLEATED RED BLOOD CELLS / PLATELET COUNT: tissue Blood; for ALANINE AMINOTRANSFERASE / ALBUMIN / ALKALINE PHOSPHATASE / ASPARTATE AMINOTRANSFERASE / BLOOD UREA NITROGEN / CARBON DIOXIDE / CHLORIDE / CHOLESTEROL / CREATINE PHOSPHOKINASE / CREATININE / GLUCOSE / LACTATE DEHYDROGENASE / LIPASE / PHOSPHORUS / POTASSIUM / SODIUM / TOTAL BILIRUBIN / TOTAL PROTEIN / URIC ACID: tissue Plasma

Compound: CC(O)(P(=O)(O)O)P(=O)(O)O [ETIDRONIC ACID]
- ABSOLUTE BASOPHIL (72 h, time 3 day): 0 CELLS/uL
- ABSOLUTE EOSINOPHIL (72 h, time 3 day): 0 CELLS/uL
- ABSOLUTE LYMPHOCYTE (72 h, time 3 day): 15847 CELLS/uL
- ABSOLUTE MONOCYTE (72 h, time 3 day): 485 CELLS/uL
- ABSOLUTE SEGMENTED NEUTROPHIL (72 h, time 3 day): 1868 CELLS/uL
- BASOPHIL (72 h, time 3 day): 0%
- EOSINOPHIL (72 h, time 3 day): 0%
- ERYTHROCYTE COUNT (72 h, time 3 day): 5.74 x10E6/uL
- HEMATOCRIT (72 h, time 3 day): 35.63%
- HEMOGLOBIN (72 h, time 3 day): 13.33 G/DL
- LEUKOCYTE COUNT (72 h, time 3 day): 18.2 x10E3/uL
- LYMPHOCYTE (72 h, time 3 day): 86.67%
- MEAN CORPUSCULAR HEMOGLOBIN (72 h, time 3 day): 23.27 pg
- MEAN CORPUSCULAR HEMOGLOBIN CONCENTRATION (72 h, time 3 day): 37.43 G/DL
- MEAN CORPUSCULAR VOLUME (72 h, time 3 day): 62.13 fL
- MONOCYTE (72 h, time 3 day): 2.67%
- NEUTROPHIL (72 h, time 3 day): 10.67%
- NUCLEATED RED BLOOD CELLS (72 h, time 3 day): 0 /100WBC
- PLATELET COUNT (72 h, time 3 day): 1274.67 x10E3/uL
- ALANINE AMINOTRANSFERASE (72 h, time 3 day): 42.33 u/L
- ALBUMIN (72 h, time 3 day): 4.67 G/DL
- ALKALINE PHOSPHATASE (72 h, time 3 day): 379 u/L
- ASPARTATE AMINOTRANSFERASE (72 h, time 3 day): 79 u/L
- BLOOD UREA NITROGEN (72 h, time 3 day): 20.67 mg/dL
- CARBON DIOXIDE (72 h, time 3 day): 24 mmol/L
- CHLORIDE (72 h, time 3 day): 100 MEQ/L
- CHOLESTEROL (72 h, time 3 day): 62.33 mg/dL
- CREATINE PHOSPHOKINASE (72 h, time 3 day): 167.33 u/L
- CREATININE (72 h, time 3 day): 0.19 mg/dL
- GLUCOSE (72 h, time 3 day): 153 mg/dL
- LACTATE DEHYDROGENASE (72 h, time 3 day): 126 u/L
- LIPASE (72 h, time 3 day): 9.33 u/L
- PHOSPHORUS (72 h, time 3 day): 12.13 mg/dL
- POTASSIUM (72 h, time 3 day): 7.21 MEQ/L
- SODIUM (72 h, time 3 day): 143.1 MEQ/L
- TOTAL BILIRUBIN (72 h, time 3 day): 0.2 mg/dL
- TOTAL PROTEIN (72 h, time 3 day): 5.6 G/DL
- URIC ACID (72 h, time 3 day): 1.7 mg/dL
- ABSOLUTE BASOPHIL (120 h, time 5 day): 0 CELLS/uL
- ABSOLUTE EOSINOPHIL (120 h, time 5 day): 0 CELLS/uL
- ABSOLUTE LYMPHOCYTE (120 h, time 5 day): 11460.33 CELLS/uL
- ABSOLUTE MONOCYTE (120 h, time 5 day): 399 CELLS/uL
- ABSOLUTE SEGMENTED NEUTROPHIL (120 h, time 5 day): 1374 CELLS/uL
- BASOPHIL (120 h, time 5 day): 0%
- EOSINOPHIL (120 h, time 5 day): 0%
- ERYTHROCYTE COUNT (120 h, time 5 day): 5.69 x10E6/uL
- HEMATOCRIT (120 h, time 5 day): 35%
- HEMOGLOBIN (120 h, time 5 day): 13.13 G/DL
- LEUKOCYTE COUNT (120 h, time 5 day): 13.23 x10E3/uL
- LYMPHOCYTE (120 h, time 5 day): 86.67%
- MEAN CORPUSCULAR HEMOGLOBIN (120 h, time 5 day): 23.1 pg
- MEAN CORPUSCULAR HEMOGLOBIN CONCENTRATION (120 h, time 5 day): 37.57 G/DL
- MEAN CORPUSCULAR VOLUME (120 h, time 5 day): 61.53 fL
- MONOCYTE (120 h, time 5 day): 3%
- NEUTROPHIL (120 h, time 5 day): 10.33%
- NUCLEATED RED BLOOD CELLS (120 h, time 5 day): 0 /100WBC
- PLATELET COUNT (120 h, time 5 day): 1338.67 x10E3/uL
- ALANINE AMINOTRANSFERASE (120 h, time 5 day): 43 u/L
- ALBUMIN (120 h, time 5 day): 4.23 G/DL
- ALKALINE PHOSPHATASE (120 h, time 5 day): 323.33 u/L
- ASPARTATE AMINOTRANSFERASE (120 h, time 5 day): 88.33 u/L
- BLOOD UREA NITROGEN (120 h, time 5 day): 18.67 mg/dL
- CARBON DIOXIDE (120 h, time 5 day): 23 mmol/L
- CHLORIDE (120 h, time 5 day): 108.5 MEQ/L
- CHOLESTEROL (120 h, time 5 day): 50 mg/dL
- CREATINE PHOSPHOKINASE (120 h, time 5 day): 367.67 u/L
- CREATININE (120 h, time 5 day): 0.18 mg/dL
- GLUCOSE (120 h, time 5 day): 149.33 mg/dL
- LACTATE DEHYDROGENASE (120 h, time 5 day): 265.67 u/L
- LIPASE (120 h, time 5 day): 8.5 u/L
- PHOSPHORUS (120 h, time 5 day): 10.7 mg/dL
- POTASSIUM (120 h, time 5 day): 5.74 MEQ/L
- SODIUM (120 h, time 5 day): 146.55 MEQ/L
- TOTAL BILIRUBIN (120 h, time 5 day): 0.2 mg/dL
- TOTAL PROTEIN (120 h, time 5 day): 5.8 G/DL
- URIC ACID (120 h, time 5 day): 1.53 mg/dL
